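Growth conditions: 96-well plates. Treatment: test compound, 48 hours, 5 concentrations. Analysis: linear interpolation between bracketing concentrations; unreached endpoints set to highest concentration. GI50: concentration for 50% inhibition of growth.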 Activity calls are given as the source filed them. Rule as the data show it: active = GI50 up to about 1.1 µM and inactive = higher.
Columns and labels:
Assay in all cases: growth of human tumour cells (NCI), 48 h
[1] = test system: MOLT-4
[2] = test system: SN12C
[3] = test system: EKVX
[4] = test system: T47D
[5] = test system: MDA-MB-231
[6] = test system: HCT-116
[7] = test system: PC-3
[8] = test system: RPMI-8226
[9] = test system: SF-539
[10] = test system: UACC-62
[11] = test system: MCF7
[12] = test system: SF-268
[13] = test system: COLO 205
[14] = test system: SK-MEL-2
[15] = test system: NCI-H23
[16] = test system: ACHN
[17] = test system: HCT-15
[18] = test system: SW-620
[19] = test system: SK-MEL-28
[20] = test system: SK-MEL-5

SMILES | GI50 [1] | GI50 [2] | GI50 [3] | GI50 [4] | GI50 [5] | GI50 [6] | GI50 [7] | GI50 [8] | GI50 [9] | GI50 [10] | GI50 [11] | GI50 [12] | GI50 [13] | GI50 [14] | GI50 [15] | GI50 [16] | GI50 [17] [µM] | GI50 [18] | GI50 [19] | GI50 [20]
O=C(Nc1cccc2cnccc12)c1cc2c(cc1Cl)Sc1nccn1S2(=O)=O | 12.9 µM (inactive) | 14.4 µM (inactive) | 20.7 µM (inactive) | 6 µM (inactive) | 14.9 µM (inactive) | 4.74 µM (inactive) | 23.3 µM (inactive) | 6.11 µM (inactive) | 14.6 µM (inactive) | 12.4 µM (inactive) | 5.36 µM (inactive) | 16.2 µM (inactive) | 15.3 µM (inactive) | 13.5 µM (inactive) | 6.67 µM (inactive) | 28.3 µM (inactive) | 8.71 | 15.5 µM (inactive) | 17.6 µM (inactive) | 12.1 µM (inactive)
CC1=CC2C(O1)C1C(=O)C=CC(=O)C1=CC2[N+](=O)[O-] (stereo not given) | 3.48 µM (inactive) | 18.1 µM (inactive) | 14.6 µM (inactive) | 3.85 µM (inactive) | 19.8 µM (inactive) | 13.8 µM (inactive) | 19.9 µM (inactive) | 9.33 µM (inactive) | 33.5 µM (inactive) | 18.6 µM (inactive) | 6.75 µM (inactive) | 15 µM (inactive) | 5.73 µM (inactive) | 23.3 µM (inactive) | 19.9 µM (inactive) | 5.3 µM (inactive) | 19.1 | 3.61 µM (inactive) | 27.4 µM (inactive) | 17.5 µM (inactive)
NC1CC(=O)c2c(I)sc(I)c21 (stereo not given) | 12.1 µM (inactive) | 27.3 µM (inactive) | 19.9 µM (inactive) | 46.2 µM (inactive) | 20 µM (inactive) | 12.4 µM (inactive) | 18.7 µM (inactive) | 4.41 µM (inactive) | 8.89 µM (inactive) | 16.7 µM (inactive) | 25.4 µM (inactive) | 21 µM (inactive) | 14.9 µM (inactive) | 17.9 µM (inactive) | 17.1 µM (inactive) | 20.9 µM (inactive) | 9.31 | 11.6 µM (inactive) | 21.4 µM (inactive) | 27.6 µM (inactive)
O=[N+]([O-])C(=C/c1cccs1)/C(=C\c1cccs1)[N+](=O)[O-] | 0.157 µM (active) | 0.547 µM (active) | 2.29 µM (inactive) | 1.68 µM (inactive) | 0.44 µM (active) | 1.11 µM (active) | 0.575 µM (active) | 0.267 µM (active) | 0.212 µM (active) | 0.778 µM (active) | 0.676 µM (active) | 0.861 µM (active) | 0.429 µM (active) | 1.75 µM (inactive) | 0.787 µM (active) | 0.543 µM (active) | 0.199 | 0.348 µM (active) | 0.395 µM (active) | 1.08 µM (active)
Clc1ccc(-c2ccc(-c3nnc(CCc4nnc(-c5ccc(-c6ccc(Cl)cc6)o5)o4)o3)o2)cc1 | 3.81 µM (inactive) | > 100 µM (inactive) | > 85.3 µM (inactive) | 75.7 µM (inactive) | 28.3 µM (inactive) | > 100 µM (inactive) | > 100 µM (inactive) | 34 µM (inactive) | 27.3 µM (inactive) | > 100 µM (inactive) | > 61.4 µM (inactive) | 28.6 µM (inactive) | > 100 µM (inactive) | 23.4 µM (inactive) | > 60.5 µM (inactive) | > 55.6 µM (inactive) | > 100 | > 95.7 µM (inactive) | > 100 µM (inactive) | > 100 µM (inactive)
Clc1ccc(C2C3COc4ccccc4C3=NN2c2ccccc2)cc1 (stereo not given) | 8.73 µM (inactive) | 43.6 µM (inactive) | > 100 µM (inactive) | > 69.7 µM (inactive) | 59.3 µM (inactive) | 33.2 µM (inactive) | > 67.1 µM (inactive) | 2.1 µM (inactive) | 34.4 µM (inactive) | 64.7 µM (inactive) | 3.84 µM (inactive) | 44.7 µM (inactive) | > 100 µM (inactive) | > 75.3 µM (inactive) | > 91.6 µM (inactive) | > 100 µM (inactive) | 17.9 | 5.05 µM (inactive) | 99.5 µM (inactive) | > 82.8 µM (inactive)
N#Cc1c(-c2ccccc2)cc(Nc2ccc(Cl)cc2)n2c1nc1ccccc12 | 2.34 µM (inactive) | 2.28 µM (inactive) | 1.52 µM (inactive) | 2.71 µM (inactive) | 3.27 µM (inactive) | 1.96 µM (inactive) | 2.56 µM (inactive) | 1.22 µM (inactive) | 4.39 µM (inactive) | 0.975 µM (active) | 3.48 µM (inactive) | 3.71 µM (inactive) | 1.74 µM (inactive) | 2.99 µM (inactive) | 2.64 µM (inactive) | 3.03 µM (inactive) | 3.37 | 4.84 µM (inactive) | > 55 µM (inactive) | 1.46 µM (inactive)
CC(=O)c1ccc2c3c1O[C@H]1c4[nH]c5ccccc5c4C[C@@]4(O)[C@@H](C2)N(CC2CC2)CC[C@]314 | 17.1 µM (inactive) | 19.1 µM (inactive) | 20.2 µM (inactive) | 19.9 µM (inactive) | 12.8 µM (inactive) | 15.5 µM (inactive) | 10.1 µM (inactive) | 18.3 µM (inactive) | 13.6 µM (inactive) | 16.5 µM (inactive) | 16.7 µM (inactive) | 13.1 µM (inactive) | 14.9 µM (inactive) | 16.6 µM (inactive) | 17.7 µM (inactive) | 17.2 µM (inactive) | 8.67 | 0.179 µM (active) | 8.17 µM (inactive) | 16 µM (inactive)
Cc1cc(=O)oc2c(C)c3oc(CBr)cc3cc12 | 14.3 µM (inactive) | 19.5 µM (inactive) | 26.4 µM (inactive) | 17.3 µM (inactive) | 29.4 µM (inactive) | 18.5 µM (inactive) | 16.9 µM (inactive) | 12.2 µM (inactive) | 20.9 µM (inactive) | 18.5 µM (inactive) | 25.2 µM (inactive) | 19.5 µM (inactive) | 18.4 µM (inactive) | 24.5 µM (inactive) | 18.3 µM (inactive) | 15.8 µM (inactive) | 18.2 | 13.5 µM (inactive) | 19.8 µM (inactive) | 13.2 µM (inactive)
CC1=NN(c2nc(N)nc(CO)n2)C(C)(C)C1 | > 100 µM (inactive) | > 100 µM (inactive) | > 100 µM (inactive) | > 100 µM (inactive) | > 100 µM (inactive) | > 100 µM (inactive) | > 100 µM (inactive) | > 100 µM (inactive) | > 100 µM (inactive) | > 100 µM (inactive) | > 100 µM (inactive) | > 100 µM (inactive) | > 100 µM (inactive) | > 100 µM (inactive) | > 100 µM (inactive) | > 100 µM (inactive) | > 100 | > 100 µM (inactive) | > 100 µM (inactive) | > 100 µM (inactive)
CC(=O)O[C@H]1C(=O)[C@@]2(C)[C@H]([C@H](OC(=O)c3ccccc3)[C@@]3(O)C[C@H](O)C(C)=C1C3(C)C)[C@]1(OC(C)=O)CO[C@@H]1C[C@@H]2O | 73.3 µM (inactive) | 49.4 µM (inactive) | > 100 µM (inactive) | > 100 µM (inactive) | 45.1 µM (inactive) | 30.5 µM (inactive) | 28 µM (inactive) | 13.7 µM (inactive) | 32.1 µM (inactive) | 36 µM (inactive) | 30.4 µM (inactive) | 83.4 µM (inactive) | 26.5 µM (inactive) | 46.9 µM (inactive) | 39.1 µM (inactive) | > 100 µM (inactive) | 53.3 | 14.6 µM (inactive) | 64.9 µM (inactive) | 35.8 µM (inactive)
Cc1[nH]c2ccccc2c1/C=N/c1ccc(/N=C/c2c(C)[nH]c3ccccc23)cc1 | 18.9 µM (inactive) | 61.2 µM (inactive) | 38.9 µM (inactive) | 25.4 µM (inactive) | 32.5 µM (inactive) | 17.5 µM (inactive) | 50.4 µM (inactive) | 18.3 µM (inactive) | 21.4 µM (inactive) | 42.6 µM (inactive) | 16.5 µM (inactive) | 50 µM (inactive) | 12.9 µM (inactive) | 23.9 µM (inactive) | 29.1 µM (inactive) | 49.1 µM (inactive) | 32 | 22.9 µM (inactive) | 97.5 µM (inactive) | 17.2 µM (inactive)
COC1=CCC2=C(CCN(C(=O)C3CC3)C2Cc2ccc(OC)c(O)c2)C1 (stereo not given) | 8.67 µM (inactive) | 49.3 µM (inactive) | 47.1 µM (inactive) | 21 µM (inactive) | 63.2 µM (inactive) | 36.6 µM (inactive) | 35.6 µM (inactive) | 34.2 µM (inactive) | 67 µM (inactive) | 48.8 µM (inactive) | 33.2 µM (inactive) | 51.1 µM (inactive) | 51.5 µM (inactive) | 38.3 µM (inactive) | 26.7 µM (inactive) | > 100 µM (inactive) | 22.1 | 29 µM (inactive) | 31.8 µM (inactive) | 28.6 µM (inactive)
CN(C)c1ccc(/C=c2/c3ccccc3n3c2cc(NC(=O)NCCC[N+](C)(C)C)[n+]3C)cc1 | > 100 µM (inactive) | 0.432 µM (active) | > 100 µM (inactive) | 6.41 µM (inactive) | > 100 µM (inactive) | > 100 µM (inactive) | > 100 µM (inactive) | 22.9 µM (inactive) | 53.1 µM (inactive) | > 100 µM (inactive) | 46.6 µM (inactive) | > 100 µM (inactive) | > 100 µM (inactive) | > 100 µM (inactive) | > 100 µM (inactive) | > 100 µM (inactive) | > 100 | > 100 µM (inactive) | > 100 µM (inactive) | 47.6 µM (inactive)

From ChEMBL document CHEMBL1201862, “PubChem BioAssay data set” (2004)
